Here are results for 52 compounds from PMC6301270 (MedChemComm, 2018).

For this assay, the system named is T.b. brucei (strain 427) bloodstream form parasites. Put plainly: T.b. brucei single concentration screen (10 μM). The conditions noted are these: Trypanosoma brucei, read-out: T.b.brucei % viability (10 µM).

By viability is commonly meant a read-out of living cells in per cent, often relative to untreated cells.

For the compound `Cc1cc(C)n2nc(C(=O)Nc3cc(C(F)(F)F)ccc3N3CCOCC3)nc2n1` [MMV019087, Cc1cc(C)n2nc(nc2n1)C(=O)Nc3cc(ccc3N4CCOCC4)C(F)(F)F], the viability at 10 µM came out at 74%.
Under `Cc1nn(Cc2ccccc2)c(Cl)c1C(=O)NC1CCCCCC1` [MMV063404, Cc1nn(Cc2ccccc2)c(Cl)c1C(=O)NC3CCCCCC3] stands 96%; under `O=C(OCc1ccccc1)N1CCC(c2cc(-c3ccncc3)c(-c3ccc(F)cc3)[nH]2)CC1` [MMV688509, Fc1ccc(cc1)-c1[nH]c(cc1-c1ccncc1)C1CCN(CC1)C(=O)OCc1ccccc1], 85%.
For `COc1ccc(N(CCc2cccc(C)n2)C(=O)C2CCCCC2)cc1` [MMV675996, COc1ccc(cc1)N(CCc2cccc(C)n2)C(=O)C3CCCCC3], the viability at 10 µM came to 107%.
In the case of `CO/C=C(/C(=O)OC)c1ccccc1Oc1cc(Oc2ccccc2C#N)ncn1` [MMV021057, CO\C=C(\C(=O)OC)/c1ccccc1Oc2cc(Oc3ccccc3C#N)ncn2], the viability at 10 µM came to 103%.
The figure for `N#Cc1ccc(-c2cnc(N)c(-c3ccc(C(N)=O)cc3)n2)cc1` [MMV085499, NC(=O)c1ccc(cc1)c2nc(cnc2N)c3ccc(cc3)C#N] is 31%; for `O=C(NCc1ccoc1)N1CCN(Cc2ccc3c(c2)OCO3)CC1` [MMV688553, O=C(NCc1cocc1)N2CCN(Cc3ccc4OCOc4c3)CC2] it is 98%.
As to `O=C(C(Cc1c[nH]c2ccccc12)NS(=O)(=O)c1ccc(Cl)cc1)N1CCCCC1` (stereo not shown) [MMV085210, Clc1ccc(cc1)S(=O)(=O)NC(Cc2c[nH]c3ccccc23)C(=O)N4CCCCC4], the viability at 10 µM was determined as 108%.
Consider `Cc1cc(NC(=O)c2ccc(Oc3ccc(Cl)cc3O)o2)no1` [MMV688955, Cc1cc(NC(=O)c2ccc(Oc3ccc(Cl)cc3O)o2)no1], for which the viability at 10 µM worked out at 88%.
As to `Cc1nc2ccccn2c1C(=O)NCc1ccc(Cl)cc1` [MMV012074, Cc1nc2ccccn2c1C(=O)NCc3ccc(Cl)cc3], the viability at 10 µM was 102%.
Take `Cc1nnc(NC(=O)c2cn(-c3ccccc3)nc2-c2ccccc2C)o1` [MMV020320, Cc1oc(NC(=O)c2cn(nc2c3ccccc3C)c4ccccc4)nn1]: the viability at 10 µM worked out at 46%.
As for `c1ccc(-c2cc(N3CCCCC3)c3ccccc3n2)nc1` [MMV560185, C1CCN(CC1)c2cc(nc3ccccc23)c4ccccn4], the viability at 10 µM amounted to 112%.
With `CCc1ccc(C(NCc2nc(N)nc(N(C)C)n2)C(C)C)cc1` (stereo not shown) [MMV1019989, CCc1ccc(cc1)C(NCc2nc(N)nc(n2)N(C)C)C(C)C], the viability at 10 µM amounted to 92%.
Turning to `CC(C(=O)N1CCCC1)N1CCN(S(=O)(=O)c2ccc(C(C)(C)C)cc2)CC1` (stereo not shown) [MMV020291, CC(N1CCN(CC1)S(=O)(=O)c2ccc(cc2)C(C)(C)C)C(=O)N3CCCC3], the viability at 10 µM came out at 95%.
Consider `CC(=O)NCC1CN(c2ccc(-c3ccc(CNCc4cn[nH]n4)cc3)c(F)c2)C(=O)O1` (stereo not shown) [MMV688327, CC(=O)NCC1CN(C(=O)O1)c2ccc(c(F)c2)c3ccc(CNCc4cn[nH]n4)cc3], for which the viability at 10 µM came out at 68%.
Regarding `CC(C)(C)C(=O)N(CCCCCCN1C[C@H](O)[C@@H](O)[C@H](O)[C@H]1CO)C1CCCCCC1` [MMV688543, CC(C)(C)C(=O)N(CCCCCCN1C[C@H](O)[C@@H](O)[C@H](O)[C@H]1CO)C2CCCCCC2], the viability at 10 µM turned out to be 107%.
Consider `COc1ccc(OC(C)C(=O)Nc2ccc(Cl)cc2C)cc1` (stereo not shown) [MMV202458, COc1ccc(OC(C)C(=O)Nc2ccc(Cl)cc2C)cc1], for which the viability at 10 µM is 94%.
Consider `FC(F)(F)c1cnc(Sc2nnc(-c3ccncc3)o2)c(Cl)c1` [MMV011765, FC(F)(F)c1cnc(Sc2oc(nn2)c3ccncc3)c(Cl)c1], for which the viability at 10 µM is 85%.
Under `Cc1nc(-c2cccc(NCc3ccccc3)c2)[nH]c1C` [MMV023227, Cc1nc([nH]c1C)c2cccc(NCc3ccccc3)c2] stands 102%.
The figure for `O=C(Nc1nc(-c2ccccn2)cs1)C1CC1c1ccccc1F` (stereo not shown) [MMV1028806, Fc1ccccc1C2CC2C(=O)Nc3nc(cs3)c4ccccn4] is 63%; for `Cc1cc2ccccc2n1CC(=O)N1CC(C(=O)N2CCCCC2)Oc2ccccc21` (stereo not shown) [MMV020520, Cc1cc2ccccc2n1CC(=O)N3CC(Oc4ccccc34)C(=O)N5CCCCC5] it is 69%.
The figure for `CCC(Sc1nc2ccccc2o1)C(=O)Nc1nnc(C)s1` (stereo not shown) [MMV611037, CCC(Sc1oc2ccccc2n1)C(=O)Nc3nnc(C)s3] is 113%.
Take `Cn1ncc2c(N3CCOCC3)nc(NCCc3c[nH]c4ccccc34)nc21` [MMV676382, Cn1ncc2c(nc(NCCc3c[nH]c4ccccc34)nc12)N1CCOCC1]: the viability at 10 µM amounted to 93%.
`Clc1ccc(Cl)c(CO[C@H]2CCCC[C@@H]2n2ccnc2)c1` [MMV676048, Clc1ccc(Cl)c(CO[C@H]2CCCC[C@@H]2n3ccnc3)c1]: the viability at 10 µM amounted to 104%.
As for `O=C1Nc2ccc(Br)cc2C12NCCc1c2[nH]c2ccccc12` (stereo not shown) [MMV006239, Brc1ccc2NC(=O)C3(NCCc4c3[nH]c5ccccc45)c2c1], the viability at 10 µM turned out to be 106%.
On to `Nc1nccc2ccc(Oc3ccncc3)cc12` [MMV026313, Nc1nccc2ccc(Oc3ccncc3)cc12], for which the viability at 10 µM worked out at 97%.
For the compound `Cc1[nH]c2ccccc2c1C(c1cccs1)N1CCN(C)CC1` (stereo not shown) [Compound 69, CN1CCN(CC1)C(c2cccs2)c3c(C)[nH]c4ccccc34], the viability at 10 µM turned out to be 29%.
For `CC(C)NCC(=O)Nc1cccc(C(=O)Nc2cccc(C(F)(F)F)c2)c1` [MMV020165, CC(C)NCC(=O)Nc1cccc(c1)C(=O)Nc2cccc(c2)C(F)(F)F], the viability at 10 µM worked out at 107%.
The figure for `Cc1ccc2cc(C3NC(=O)c4ccccc4N3)c(Cl)nc2c1` (stereo not shown) [MMV019807, Cc1ccc2cc(C3NC(=O)c4ccccc4N3)c(Cl)nc2c1] is 113%; for `CC1(C)Cc2c(c(N3CCOCC3)nc3snc(Br)c23)CO1` [MMV687794, CC1(C)Cc2c(CO1)c(nc3snc(Br)c23)N4CCOCC4] it is 50%.
Regarding `NS(=O)(=O)c1cccc(-c2ccc3ncc(N4CCOCC4)nc3c2)c1` [MMV023860, NS(=O)(=O)c1cccc(c1)c2ccc3ncc(nc3c2)N4CCOCC4], the viability at 10 µM worked out at 110%.
The figure for `Cc1cc(NC(=O)c2ccc(S(=O)(=O)N(Cc3ccccc3)C(C)C)cc2)no1` [MMV007133, CC(C)N(Cc1ccccc1)S(=O)(=O)c2ccc(cc2)C(=O)Nc3cc(C)on3] is 98%.
`O=C(Nc1ccc(N2CCNCC2)nc1)c1oc(-c2ccccc2)nc1C(F)(F)F` [MMV024937, FC(F)(F)c1nc(oc1C(=O)Nc2ccc(nc2)N3CCNCC3)c4ccccc4]: the viability at 10 µM was 77%.
As to `O=C(C1CCN(c2cc(-n3cccc3)ncn2)CC1)N1CCc2ccccc2C1` [MMV687172, O=C(C1CCN(CC1)c2cc(ncn2)n3cccc3)N4CCc5ccccc5C4], the viability at 10 µM was determined as 93%.
Regarding `NC(=O)c1cc(-c2ccsc2)ccc1OCCOc1ccccc1` [MMV687138, NC(=O)c1cc(ccc1OCCOc2ccccc2)c3ccsc3], the viability at 10 µM turned out to be 104%.
As to `CC1(COc2ccc(N3CCC(Oc4ccc(OC(F)(F)F)cc4)CC3)cc2)Cn2cc([N+](=O)[O-])nc2O1` (stereo not shown) [MMV688262, CC1(COc2ccc(cc2)N3CCC(CC3)Oc4ccc(OC(F)(F)F)cc4)Cn5cc(nc5O1)N(=O)=O], the viability at 10 µM came out at 74%.
Consider `c1ccc2c(c1)CN(CC1CC1)CC1(CCN(Cc3c[nH]c4cnccc34)CC1)O2` [MMV023183, C(C1CC1)N2Cc3ccccc3OC4(CCN(Cc5c[nH]c6cnccc56)CC4)C2], for which the viability at 10 µM stood at 93%.
As for `COc1cccc(-c2cc3c(Nc4cccnc4)nccc3[nH]2)c1` [MMV392832, COc1cccc(c1)c2cc3c(Nc4cccnc4)nccc3[nH]2], the viability at 10 µM stood at 101%.
Turning to `CCOC(=O)c1cc(-c2csc(Nc3c(C)cc(C)cc3C)n2)on1` [MMV676461, CCOC(=O)c1cc(on1)c2csc(Nc3c(C)cc(C)cc3C)n2], the viability at 10 µM is 102%.
Take `CCOc1ccc2cc(-c3nn(C(C)(C)C)c(N)c3C(N)=O)cnc2c1` [MMV688853, CCOc1ccc2cc(cnc2c1)c3nn(c(N)c3C(=O)N)C(C)(C)C]: the viability at 10 µM amounted to 99%.
Turning to `Nc1ncc(-c2cn[nH]c2)cc1-c1nc2cc(Cl)cnc2[nH]1` [MMV023370, Nc1ncc(cc1c2nc3cc(Cl)cnc3[nH]2)c4cn[nH]c4], the viability at 10 µM is 88%.
As to `NC(=O)c1cc(Br)ccc1OCCOc1ccccc1` [MMV687243, NC(=O)c1cc(Br)ccc1OCCOc2ccccc2], the viability at 10 µM turned out to be 92%.
As to `CCc1nn(C)c(C(=O)NCc2ccc(Oc3ccc(C)cc3)cc2)c1Cl` [MMV688934, CCc1nn(C)c(C(=O)NCc2ccc(Oc3ccc(C)cc3)cc2)c1Cl], the viability at 10 µM was determined as 101%.
As for `CCCS(=O)(=O)N1CCC(CO)(Cc2ccccc2C(F)(F)F)CC1` [MMV001059, CCCS(=O)(=O)N1CCC(CO)(Cc2ccccc2C(F)(F)F)CC1], the viability at 10 µM is 87%.
`COC(=O)c1ccc(F)cc1NS(=O)(=O)c1cccc(-c2cnn(Cc3ccccc3)c2)c1` [MMV688350, COC(=O)c1ccc(F)cc1NS(=O)(=O)c2cccc(c2)c3cnn(Cc4ccccc4)c3]: the viability at 10 µM is 85%.
On to `COc1ccc(-c2nn(C(C)C)c3ncnc(N)c23)cc1OC` [MMV675993, COc1ccc(cc1OC)c2nn(C(C)C)c3ncnc(N)c23], for which the viability at 10 µM came out at 38%.
Consider `COc1cccc(OCC(=O)c2ccc(Br)cc2)c1` [MMV676379, COc1cccc(OCC(=O)c2ccc(Br)cc2)c1], for which the viability at 10 µM was determined as 104%.
The figure for `O=C1O[C@@H](CO)CN1c1cc(F)c(C2=CCN(Cc3ccccc3)CC2)c(F)c1` [MMV687729, OC[C@H]1CN(C(=O)O1)c2cc(F)c(C3=CCN(Cc4ccccc4)CC3)c(F)c2] is 101%; for `Cc1ccc(NC(=O)c2nc[nH]c2C(=O)Nc2nc3ccccc3[nH]2)c(C)c1` [MMV011903, Cc1ccc(NC(=O)c2nc[nH]c2C(=O)Nc3nc4ccccc4[nH]3)c(C)c1] it is 10%; for `COc1cncc(-c2cncc(N3CCN(c4ccncc4)CC3)n2)c1` [MMV085071, COc1cncc(c1)c2cncc(n2)N3CCN(CC3)c4ccncc4] it is 79%.
Take `CC(C)(C)n1nc(Cc2ccc(F)c(Cl)c2)c2c(N)ncnc21` [MMV688852, CC(C)(C)n1nc(Cc2ccc(F)c(Cl)c2)c2c(N)ncnc12]: the viability at 10 µM was found to be 87%.
The figure for `C[C@H](C(N)=O)N1CCCC[C@H]1c1ccc(OCc2cccc(F)c2)cc1` [MMV676269, C[C@@H](N1CCCC[C@H]1c2ccc(OCc3cccc(F)c3)cc2)C(=O)N] is 92%.
